Assay results: ChEMBL document CHEMBL1201862, “PubChem BioAssay data set” (2004)
“And” between values parts separate entries of the source, which are not always exact repeats. Equal entries are not always repeated.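 The compound was tested at five concentrations on cells cultured in 96-well plates, with a 48-hour exposure period. GI50 is the concentration that inhibits growth by half.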 The source made the active and inactive calls. No stated cut-off is given here; in the data, active = GI50 up to about 1.1 µM and inactive = higher.

How the values were obtained:
Assay in all cases: DTP human tumour cell line panel, 48 h
SF-268 = test system: SF-268
RXF 393 = test system: RXF 393
SK-MEL-5 = test system: SK-MEL-5
RPMI-8226 = test system: RPMI-8226
HOP-92 = test system: HOP-92
HOP-62 = test system: HOP-62
SF-539 = test system: SF-539
OVCAR-5 = test system: OVCAR-5
U-251 = test system: U-251
SN12C = test system: SN12C
A498 = test system: A498
HCT-116 = test system: HCT-116
OVCAR-4 = test system: OVCAR-4
NCI-H522 = test system: NCI-H522
TK-10 = test system: TK-10
KM12 = test system: KM12

Row | Structure (SMILES) | GI50 (SF-268) | GI50 (RXF 393) | GI50 (SK-MEL-5) | GI50 (RPMI-8226) | GI50 (HOP-92) | GI50 (HOP-62) | GI50 (SF-539) | GI50 (OVCAR-5) | GI50 (U-251) | GI50 (SN12C) | GI50 (A498) | GI50 (HCT-116) | GI50 (OVCAR-4) | GI50 (NCI-H522) | GI50 (TK-10) | GI50 (KM12)
1 | C(=C\c1c2oc(-c3ccccc3)cc(-c3ccccc3)c-2c2ccccc12)/C=C1\c2ccccc2-c2c(-c3ccccc3)cc(-c3ccccc3)[o+]c21.[O-][Cl+3]([O-])([O-])[O-] | > 100 µM (inactive) | > 100 µM (inactive) | > 100 µM (inactive) | > 100 µM (inactive) | > 100 µM (inactive) | > 100 µM (inactive) | > 100 µM (inactive) | > 100 µM (inactive) | > 100 µM (inactive) | > 100 µM (inactive) | > 100 µM (inactive) | > 100 µM (inactive) | > 100 µM (inactive) | > 100 µM (inactive) | > 100 µM (inactive) | –
2 | COc1cccc2c1C1=CC(=O)CCC1C(C)(C)O2 (configuration not stated) | 44.1 µM (inactive) | 6.03 µM (inactive) | > 100 µM (inactive) | 20.6 µM (inactive) | > 100 µM (inactive) | > 100 µM (inactive) | > 100 µM (inactive) | > 100 µM (inactive) | 45.3 µM (inactive) | > 100 µM (inactive) | > 100 µM (inactive) | 47.6 µM (inactive) | > 100 µM (inactive) | > 100 µM (inactive) | > 100 µM (inactive) | 45.6 µM (inactive)
3 | Cc1cc(C)c(C(=O)C(C)C(c2ccccc2)c2ccc(Cl)cc2)c(C)c1 (configuration not stated) | > 100 µM (inactive) | > 100 µM (inactive) and 77.6 µM (inactive) | > 100 µM (inactive) | – | – | > 100 µM (inactive) | > 100 µM (inactive) | – | > 100 µM (inactive) | > 100 µM (inactive) | – | > 100 µM (inactive) and 56.1 µM (inactive) | 49.4 µM (inactive) and 67.6 µM (inactive) | – | > 100 µM (inactive) | > 100 µM (inactive) and 96.4 µM (inactive)
4 | C[N+](C)(C)CCc1ccccc1 | > 100 µM (inactive) | > 100 µM (inactive) | > 100 µM (inactive) | > 100 µM (inactive) | > 100 µM (inactive) | > 100 µM (inactive) | > 100 µM (inactive) | > 100 µM (inactive) | > 100 µM (inactive) | > 100 µM (inactive) | > 100 µM (inactive) | > 100 µM (inactive) | > 100 µM (inactive) | > 100 µM (inactive) | > 100 µM (inactive) | > 100 µM (inactive)
5 | C=C/C=C(\NC(=O)C(Cl)(Cl)Cl)[Si](C)(C)C | > 100 µM (inactive) | > 100 µM (inactive) | > 100 µM (inactive) | > 100 µM (inactive) | > 100 µM (inactive) | > 100 µM (inactive) | > 100 µM (inactive) | > 100 µM (inactive) | > 100 µM (inactive) | > 100 µM (inactive) | > 100 µM (inactive) | > 100 µM (inactive) | > 100 µM (inactive) | > 100 µM (inactive) | > 100 µM (inactive) | > 100 µM (inactive)
6 | CCN(CC)CCC(=O)N1CCc2c([nH]c3ccccc23)C1c1cccnc1 (configuration not stated) | > 100 µM (inactive) | – | > 100 µM (inactive) | > 100 µM (inactive) | 68.9 µM (inactive) | > 100 µM (inactive) | > 100 µM (inactive) | > 100 µM (inactive) | > 100 µM (inactive) | > 100 µM (inactive) | > 100 µM (inactive) | > 100 µM (inactive) | > 100 µM (inactive) | > 100 µM (inactive) | > 100 µM (inactive) | > 100 µM (inactive)
7 | COc1ccc2nc(NC(=O)C(=O)CC(=O)c3ccc([N+](=O)[O-])cc3)sc2c1 | > 100 µM (inactive) | – | > 100 µM (inactive) | > 100 µM (inactive) | > 100 µM (inactive) | > 100 µM (inactive) | > 100 µM (inactive) | > 100 µM (inactive) | > 100 µM (inactive) | > 100 µM (inactive) | > 100 µM (inactive) | > 100 µM (inactive) | > 100 µM (inactive) | > 100 µM (inactive) | – | > 100 µM (inactive)
8 | CC(C)C(=O)/C=C/c1ccc(Cl)c(Cl)c1 | 19.2 µM (inactive) | 16.7 µM (inactive) | 14.8 µM (inactive) | 13.8 µM (inactive) | 17.4 µM (inactive) | – | 13.2 µM (inactive) | 21.7 µM (inactive) | 17 µM (inactive) | 15 µM (inactive) | 24.8 µM (inactive) | 3.69 µM (inactive) | 34.9 µM (inactive) | 13.4 µM (inactive) | 14.2 µM (inactive) | 14.8 µM (inactive)
9 | CCCN(CCC)c1c([N+](=O)[O-])cc(C(=O)N(CCO)CCO)cc1[N+](=O)[O-] | > 100 µM (inactive) | – | > 100 µM (inactive) | > 100 µM (inactive) | – | – | > 100 µM (inactive) | > 100 µM (inactive) | > 100 µM (inactive) | > 100 µM (inactive) | – | > 100 µM (inactive) | > 100 µM (inactive) | > 100 µM (inactive) | > 100 µM (inactive) | > 100 µM (inactive)
10 | CC(C)N1CC2CC(CN(C(=O)c3ccc(Cl)cc3)C2)C1 | > 100 µM (inactive) | > 100 µM (inactive) | > 100 µM (inactive) | > 100 µM (inactive) | > 100 µM (inactive) | > 100 µM (inactive) | > 100 µM (inactive) | > 100 µM (inactive) | > 100 µM (inactive) | > 100 µM (inactive) | > 100 µM (inactive) | – | > 100 µM (inactive) | > 100 µM (inactive) | > 100 µM (inactive) | > 100 µM (inactive)
11 | CN(C)C=C1C(=O)N(C)C(=O)N(C)C1=O | – | > 100 µM (inactive) | > 100 µM (inactive) | > 100 µM (inactive) | > 100 µM (inactive) | – | > 100 µM (inactive) | > 100 µM (inactive) | > 100 µM (inactive) | > 100 µM (inactive) | > 100 µM (inactive) | > 100 µM (inactive) | > 100 µM (inactive) | – | > 100 µM (inactive) | > 100 µM (inactive)
12 | COc1ccc(C/C(=N/O)C(=O)NCCc2cc(Br)c(OCCCN(C)C)c(Br)c2)cc1Br [APLYSAMINE 2] | 18.5 µM (inactive) | 21.6 µM (inactive) | – | – | – | 15.8 µM (inactive) | 13.6 µM (inactive) | 22.3 µM (inactive) | 17.7 µM (inactive) | 18.5 µM (inactive) | – | 14.5 µM (inactive) | 17 µM (inactive) | 16.4 µM (inactive) | 29.8 µM (inactive) | 16.6 µM (inactive)
13 | C[N+](C)(C)CC(=O)N/N=C(/C(=O)Nc1ccc(Br)cc1)C1C(=O)NC(=O)NC1=O | > 100 µM (inactive) | > 100 µM (inactive) | > 100 µM (inactive) | > 100 µM (inactive) | – | > 100 µM (inactive) | > 100 µM (inactive) | > 100 µM (inactive) | > 100 µM (inactive) | > 100 µM (inactive) | > 100 µM (inactive) | > 100 µM (inactive) | > 100 µM (inactive) | > 100 µM (inactive) | > 100 µM (inactive) | > 100 µM (inactive)
14 | O=C(CC(=O)n1nc(-c2ccccc2)c(/N=N/c2ccc([N+](=O)[O-])cc2)c1-c1ccccc1)Nc1ccc(Cl)cc1 | 13.5 µM (inactive) | 19.5 µM (inactive) | 3.23 µM (inactive) | 30.2 µM (inactive) | 16.8 µM (inactive) | 14.5 µM (inactive) | 21.5 µM (inactive) | 26.5 µM (inactive) | 18.9 µM (inactive) | 42.1 µM (inactive) | – | 12.9 µM (inactive) | 34.2 µM (inactive) | 23.2 µM (inactive) | 22.6 µM (inactive) | 12 µM (inactive)
15 | NNC(=O)CC(=O)Nc1ccccc1F | > 100 µM (inactive) | > 100 µM (inactive) | > 100 µM (inactive) | > 100 µM (inactive) | > 100 µM (inactive) | > 100 µM (inactive) | > 100 µM (inactive) | > 100 µM (inactive) | > 100 µM (inactive) | > 100 µM (inactive) | > 100 µM (inactive) | > 100 µM (inactive) | > 100 µM (inactive) | > 100 µM (inactive) | – | > 100 µM (inactive)
16 | CCOC(=O)c1ccc(/N=C/c2ccc(N(CCC#N)S(=O)(=O)c3ccccc3)cc2C)cc1 | 26.1 µM (inactive) | – | 80.7 µM (inactive) | 36.2 µM (inactive) | – | 31 µM (inactive) | 41.9 µM (inactive) | 31.8 µM (inactive) | 97.1 µM (inactive) | 75.7 µM (inactive) | > 100 µM (inactive) | 36.9 µM (inactive) | 39.4 µM (inactive) | 72.1 µM (inactive) | 49.3 µM (inactive) | 18.7 µM (inactive)
17 | Cc1ccc(C(=O)O/N=C2/CCCC/C2=C\c2ccccc2)cc1 | 13.2 µM (inactive) | 38.6 µM (inactive) | 37.2 µM (inactive) | 77.8 µM (inactive) | 54.5 µM (inactive) | > 100 µM (inactive) | 45.1 µM (inactive) | 81.1 µM (inactive) | 38.3 µM (inactive) | 80.9 µM (inactive) | – | 16.4 µM (inactive) | 36.9 µM (inactive) | 16.6 µM (inactive) | > 100 µM (inactive) | 73.6 µM (inactive)
18 | C=C1C(=O)OC2C1C(OC(=O)/C(=C/C)COC(C)=O)CC1(CO1)C1C(OC(=O)/C(=C/C)CO)C=C(C)C21 (configuration not stated) | 2.75 µM (inactive) | 0.394 µM (active) | 2.29 µM (inactive) | 0.655 µM (active) | – | – | 5.81 µM (inactive) | 12.2 µM (inactive) | 15.1 µM (inactive) | 1.82 µM (inactive) | 3.03 µM (inactive) | 1.63 µM (inactive) | 2.86 µM (inactive) | – | 2.3 µM (inactive) | 3.94 µM (inactive)
